Data on 15 compounds can be found in the supplement of paper PMC10627819.

What all share (assay): Bliss interaction score (quartile over a dose matrix) (fitness difference); higher = more antagonism (negative = synergy)
In assay [1] the test system is B. subtilis 168. A digest of the protocol: (§1)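 Fitness was OD595 at entry into stationary phase divided by the plate's robust no-drug mean and capped at 1; single-drug fitness was inferred from combination data. The Bliss score is observed minus expected (product) fitness, summarised by quartiles over technical, biological and donor/recipient replicates.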
In assay [2] the test system is S. aureus DSM 20231. Summed up: as §1
The test system of assay [3] is S. aureus Newman. A digest of the protocol: as §1
The test system of assay [4] is S. pneumoniae D39V. Summed up: as §1
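Further: first quartile when negative (synergy) and third quartile when positive (antagonism).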

For the compound `CC(=O)OC[C@H]1O[C@@H]([S-])[C@H](OC(C)=O)[C@@H](OC(C)=O)[C@@H]1OC(C)=O.CCP(CC)CC.[Au+]` [Auranofin] + C[C@@H]1O[C@@H]1P(=O)(O)O [Fosfomycin], the Bliss interaction score in assay [1] is 0.0301; in assay [2], 0.0509; in assay [3], 0.0901; in assay [4], -0.0421.
Consider `CC(=O)OC[C@H]1O[C@@H]([S-])[C@H](OC(C)=O)[C@@H](OC(C)=O)[C@@H]1OC(C)=O.CCP(CC)CC.[Au+]` [Auranofin] + C[C@@H](O)[C@H]1C(=O)N2C(C(=O)O)=C(SCCNC=N)C[C@H]12 [Imipenem], for which the Bliss interaction score was -0.0439 in assay [1], -0.0179 in assay [2], 0.162 in assay [3] and -0.0587 in assay [4].
The like results for `CC(=O)OC[C@H]1O[C@@H]([S-])[C@H](OC(C)=O)[C@@H](OC(C)=O)[C@@H]1OC(C)=O.CCP(CC)CC.[Au+]` [Auranofin] + C[C@H]1COc2c(N3CCN(C)CC3)c(F)cc3c(=O)c(C(=O)O)cn1c23 [Levofloxacin] were, in that order, 0.044, 0.0688, 0.0684 and -0.0939.
Regarding `CC(=O)OC[C@H]1O[C@@H]([S-])[C@H](OC(C)=O)[C@@H](OC(C)=O)[C@@H]1OC(C)=O.CCP(CC)CC.[Au+]` [Auranofin] + C[C@H]1c2cccc(O)c2C(=O)C2=C(O)[C@]3(O)C(=O)C(C(N)=O)=C(O)[C@@H](N(C)C)[C@@H]3[C@@H](O)[C@@H]21 [Doxycycline], the Bliss interaction score was 0.0704 in assay [1], -0.0178 in assay [2], 0.0622 in assay [3] and 0.052 in assay [4].
For `CC(=O)OC[C@H]1O[C@@H]([S-])[C@H](OC(C)=O)[C@@H](OC(C)=O)[C@@H]1OC(C)=O.CCP(CC)CC.[Au+]` [Auranofin] + C[n+]1ccc(-c2cc[n+](C)cc2)cc1 [Paraquat], in that order: -0.0338, -0.0369, -0.0941 and 0.0914.
The like results for `CC(=O)OC[C@H]1O[C@@H]([S-])[C@H](OC(C)=O)[C@@H](OC(C)=O)[C@@H]1OC(C)=O.CCP(CC)CC.[Au+]` [Auranofin] + Cc1cc(NS(=O)(=O)c2ccc(N)cc2)no1 [Sulfamethoxazol] were, in that order, -0.0445, -0.0419, -0.0374 and 0.088.
The like results for `CC(=O)OC[C@H]1O[C@@H]([S-])[C@H](OC(C)=O)[C@@H](OC(C)=O)[C@@H]1OC(C)=O.CCP(CC)CC.[Au+]` [Auranofin] + Cc1ncc([N+](=O)[O-])n1CCO [Metronidazole] were, in that order, -0.0357, -0.046, -0.137 and 0.133.
For the compound `CC(=O)OC[C@H]1O[C@@H]([S-])[C@H](OC(C)=O)[C@@H](OC(C)=O)[C@@H]1OC(C)=O.CCP(CC)CC.[Au+]` [Auranofin] + Cc1onc(-c2ccccc2)c1C(=O)N[C@@H]1C(=O)N2[C@@H]1SC(C)(C)[C@@H]2C(=O)O [Oxacillin], the Bliss interaction score is -0.0319 in assay [1], 0.0406 in assay [2], -0.0535 in assay [3] and 0.125 in assay [4].
The like results for `CC(=O)OC[C@H]1O[C@@H]([S-])[C@H](OC(C)=O)[C@@H](OC(C)=O)[C@@H]1OC(C)=O.CCP(CC)CC.[Au+]` [Auranofin] + Clc1ccc(COC(Cn2ccnc2)c2ccc(Cl)cc2Cl)c(Cl)c1 [Miconazole] were, in that order, 0.0318, -0.0279, 0.0208 and 0.086.
For the compound `CC(=O)OC[C@H]1O[C@@H]([S-])[C@H](OC(C)=O)[C@@H](OC(C)=O)[C@@H]1OC(C)=O.CCP(CC)CC.[Au+]` [Auranofin] + Cn1nnc(-c2ccc(-c3ccc(N4C[C@H](CO)OC4=O)cc3F)cn2)n1 [Tedizolid], the Bliss interaction score in assay [1] is -0.0317; in assay [2], -0.0334; in assay [3], -0.108; in assay [4] it was 0.0602.
As to `CC(=O)OC[C@H]1O[C@@H]([S-])[C@H](OC(C)=O)[C@@H](OC(C)=O)[C@@H]1OC(C)=O.CCP(CC)CC.[Au+]` [Auranofin] + N[C@@H]1CONC1=O [CycloserineD], the Bliss interaction score in assay [1] is 0.0806; in assay [2], -0.0513; in assay [3] it was 0.0247; in assay [4] it was 0.106.
Regarding `CC(=O)OC[C@H]1O[C@@H]([S-])[C@H](OC(C)=O)[C@@H](OC(C)=O)[C@@H]1OC(C)=O.CCP(CC)CC.[Au+]` [Auranofin] + O=C1CN(/N=C/c2ccc([N+](=O)[O-])o2)C(=O)N1 [Nitrofurantoin], the Bliss interaction score is -0.066 in assay [1], -0.0217 in assay [2], -0.132 in assay [3] and -0.421 in assay [4].
For `CC(=O)OC[C@H]1O[C@@H]([S-])[C@H](OC(C)=O)[C@@H](OC(C)=O)[C@@H]1OC(C)=O.CCP(CC)CC.[Au+]` [Auranofin] + O=C(N[C@H](CO)[C@H](O)c1ccc([N+](=O)[O-])cc1)C(Cl)Cl [Chloramphenicol], the Bliss interaction score is 0.0717 in assay [1], 0.0319 in assay [2], 0.0594 in assay [3] and -0.0406 in assay [4].
For `CC(=O)OC[C@H]1O[C@@H]([S-])[C@H](OC(C)=O)[C@@H](OC(C)=O)[C@@H]1OC(C)=O.CCP(CC)CC.[Au+]` [Auranofin] + O=C(O)[C@H]1/C(=C/CO)O[C@@H]2CC(=O)N21 [Clavulanic], in that order: -0.0681, -0.188, 0.167 and -0.0729.
The like results for `CC(=O)OC[C@H]1O[C@@H]([S-])[C@H](OC(C)=O)[C@@H](OC(C)=O)[C@@H]1OC(C)=O.CCP(CC)CC.[Au+]` [Auranofin] + O=C(O)c1cn(C2CC2)c2cc(N3CCNCC3)c(F)cc2c1=O [Ciprofloxacin] were, in that order, 0.0472, 0.0217, 0.0727 and -0.11.
